Measured values taken from the supplement of paper PMC10307832.

The cell lines below were run with N[C@@H]1CCCN(c2c(/C=C3\SC(=O)NC3=O)cccc2-c2ccccc2)C1 [AZD1208] + COc1cc2c(Oc3ccc(NC(=O)C4(C(=O)Nc5ccc(F)cc5)CC4)cc3F)ccnc2cc1OCCCN1CCOCC1 [Foretinib] (partner 0.25 µM) (assay: relative viability (nuclei count vs DMSO), 5 days (fraction); higher = more cells survive). Conditions: first compound 0.08 µM.
Summary of the method: (§1)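 Lung cancer cell lines were pin-tool dosed in 1536-well plates on the day after seeding, with either a lone drug or a fixed anchor-drug dose plus five library-drug doses (not always all listed) in √10 steps. Nuclei were counted on 4× images after 5 days. Relative viability is the ratio of treated-well to vehicle-well nuclei counts, with each value a median of duplicate plates.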

Point of comparison: NCI-H1793, relative viability 0.578. Against it:
- 201T — higher, 1.06
- NCI-H1915 — higher, 1.12
- HCC-827 — higher, 1.14
- LXF-289 — higher, 0.978
- NCI-H2347 — higher, 0.867
- CAL-12T — higher, 1.1
- NCI-H1651 — higher, 0.637
- EPLC-272H — higher, 0.714
- NCI-H23 — higher, 0.914
- NCI-H1355 — higher, 0.973
- NCI-H322M — higher, 0.925
- NCI-H1437 — higher, 1.31
- NCI-H1755 — higher, 0.908
- NCI-H2085 — higher, 0.965
- HCC-15 — higher, 0.956
- PC-3 [JPC-3] — higher, 1.11

Same assay, conditions: first compound 0.253 µM

Point of comparison: LCLC-97TM1, relative viability 0.945. Against it:
- NCI-H3122 — higher, 1.05
- HOP-62 — higher, 1.16
- LU99A — lower, 0.882
- BEN — lower, 0.602
- HARA — lower, 0.709
- HCC-78 — lower, 0.499
- NCI-H441 — lower, 0.761
- NCI-H2023 — lower, 0.462
- A-427 — higher, 1.01
- NCI-H460 — higher, 1.09
- NCI-H1734 — lower, 0.814
- NCI-H520 — lower, 0.754
- NCI-H2405 — higher, 1
- SW 1573 — lower, 0.872
- NCI-H1395 — higher, 1
- 201T — higher, 1.12
- NCI-H1915 — higher, 1.09
- HCC-827 — higher, 1.1
- LXF-289 — higher, 1.03
- NCI-H2347 — lower, 0.671
- CAL-12T — higher, 1.28
- NCI-H1651 — lower, 0.827
- EPLC-272H — lower, 0.71
- NCI-H23 — lower, 0.648
- NCI-H1355 — higher, 1
- NCI-H322M — lower, 0.873
- NCI-H1437 — higher, 1.17
- NCI-H1755 — lower, 0.892
- NCI-H2085 — higher, 0.97
- HCC-15 — higher, 0.994
- NCI-H1793 — lower, 0.653
- PC-3 [JPC-3] — higher, 1.06

Same assay, conditions: first compound 0.8 µM

Point of comparison: NCI-H1793, relative viability 0.545. Against it:
- NCI-H3122 — higher, 0.924
- HOP-62 — higher, 1.02
- LU99A — higher, 0.782
- BEN — lower, 0.47
- HARA — higher, 0.827
- HCC-78 — lower, 0.512
- NCI-H441 — higher, 0.764
- LCLC-97TM1 — higher, 1.03
- NCI-H2023 — higher, 0.795
- A-427 — higher, 0.905
- NCI-H460 — higher, 0.978
- NCI-H1734 — higher, 0.738
- NCI-H520 — higher, 0.656
- NCI-H2405 — higher, 0.991
- SW 1573 — higher, 0.837
- NCI-H1395 — higher, 1.01
- 201T — higher, 1.07
- NCI-H1915 — higher, 1.11
- HCC-827 — higher, 1.05
- LXF-289 — higher, 0.996
- NCI-H2347 — higher, 0.987
- CAL-12T — higher, 1.04
- NCI-H1651 — higher, 0.665
- EPLC-272H — higher, 0.618
- NCI-H23 — higher, 0.9
- NCI-H1355 — higher, 0.878
- NCI-H322M — higher, 0.869
- NCI-H1437 — higher, 1.36
- NCI-H1755 — higher, 0.851
- NCI-H2085 — higher, 1.23
- HCC-15 — higher, 0.876
- PC-3 [JPC-3] — higher, 1.14

Same assay, conditions: first compound 2.53 µM

Point of comparison: BEN, relative viability 0.571. Against it:
- NCI-H3122 — higher, 1.08
- HOP-62 — higher, 1.03
- LU99A — higher, 0.82
- HARA — lower, 0.539
- HCC-78 — lower, 0.526
- NCI-H441 — higher, 0.712
- LCLC-97TM1 — higher, 0.891
- NCI-H2023 — higher, 0.805
- A-427 — higher, 0.865
- NCI-H460 — higher, 0.987
- NCI-H1734 — higher, 0.755
- NCI-H520 — higher, 0.612
- NCI-H2405 — higher, 1.06
- SW 1573 — higher, 0.573
- NCI-H1395 — higher, 0.97
- 201T — higher, 1.06
- NCI-H1915 — higher, 1.11
- HCC-827 — higher, 1
- LXF-289 — higher, 0.962
- NCI-H2347 — higher, 0.917
- CAL-12T — higher, 1.35
- NCI-H1651 — higher, 0.768
- EPLC-272H — lower, 0.564
- NCI-H23 — higher, 0.967
- NCI-H1355 — higher, 0.84
- NCI-H322M — higher, 0.966
- NCI-H1437 — higher, 1.42
- NCI-H1755 — higher, 0.861
- NCI-H2085 — higher, 0.886
- HCC-15 — higher, 0.88
- NCI-H1793 — higher, 0.749
- PC-3 [JPC-3] — higher, 1.13

Same assay, conditions: first compound 8 µM

Point of comparison: NCI-H1755, relative viability 0.787. Against it:
- NCI-H3122 — higher, 0.945
- HOP-62 — higher, 1.06
- LU99A — lower, 0.611
- BEN — lower, 0.459
- HARA — higher, 0.804
- HCC-78 — lower, 0.625
- NCI-H441 — lower, 0.718
- LCLC-97TM1 — higher, 0.8
- NCI-H2023 — lower, 0.634
- A-427 — higher, 0.813
- NCI-H460 — higher, 1.11
- NCI-H1734 — lower, 0.56
- NCI-H520 — lower, 0.396
- NCI-H2405 — higher, 0.993
- SW 1573 — lower, 0.653
- NCI-H1395 — higher, 0.959
- 201T — higher, 1
- NCI-H1915 — higher, 1.03
- HCC-827 — higher, 1.03
- LXF-289 — higher, 1.03
- NCI-H2347 — lower, 0.742
- CAL-12T — higher, 1.38
- NCI-H1651 — lower, 0.588
- EPLC-272H — lower, 0.478
- NCI-H23 — lower, 0.748
- NCI-H1355 — lower, 0.784
- NCI-H322M — higher, 0.996
- NCI-H1437 — higher, 1.42
- NCI-H2085 — lower, 0.748
- HCC-15 — higher, 0.855
- NCI-H1793 — lower, 0.631
- PC-3 [JPC-3] — higher, 1.04

Each cell line was assayed with N[C@@H]1CCCN(c2c(/C=C3\SC(=O)NC3=O)cccc2-c2ccccc2)C1 [AZD1208] + Nc1nc2[nH]cc(CCc3ccc(C(=O)N[C@@H](CCC(=O)O)C(=O)O)cc3)c2c(=O)[nH]1 [Pemetrexed] (partner 0.2 µM) in the same assay as above. Conditions: first compound 0.08 µM.
Summary of the method: as §1

Point of comparison: HOP-62, relative viability 0.298. Against it:
- NCI-H3122 — lower, 0.201
- LU99A — lower, 0.198
- BEN — higher, 0.877
- HARA — lower, 0.251
- HCC-78 — higher, 0.91
- NCI-H441 — lower, 0.234
